Results reported in patent US9469853B2, “MCPIP protection against osteoclast production” (University of Central Florida Research Foundation, Inc., priority 2005, dated 2016).

Tests used:
[1] = tested on: TRAP and CTSK expression in BMCs; test: Expression of OC markers TRAP and CTSK (immunoblot, real-time PCR); format: cell-based, human; conditions: for MCPIP-induced expression of TRAP and CTSK: MCPIP-transfected BMCs, inhibitors 6 h (CeO2 10 μM, apocynin 100 μg/ml, TUDC 100 μM, 3′-MA 50 μM, LY294002 20 μM) or siRNA/antisense 24 h before transfection; for expression of TRAP and CTSK: substance alone, no other inducer, protein and mRNA
Protocol: (§1) BMCs were cultured in α-MEM supplemented with 10% FBS containing 30 ng/ml M-CSF, 100 U/ml penicillin, and 100 μg/ml streptomycin in 5% CO2 at 37° C. OC precursor cells were induced after 3-day culture as Ha et al. (2010). At this point, cells were treated with 50 ng/ml MCP-1, inhibitors, or gene transfection. For inhibitor treatment, CeO2 (10 μM), apocynin (100 μg/ml), TUDC (100 μM), 3′-MA (50 μM), and LY294002 (20 μM) were added 6 h before gene transfection.
(§2) OC precursor cells were transfected with 1 μg GFP or MCPIP-GFP eukaryotic expression plasmids for gene-gain-function assay by using Fugene 6. For gene silencing, chemically synthesized siRNA duplex (100 nM) targeting MCPIP, IRE-1, or Beclin-1 was transfected into OC precursor cells using DharmaFECT (Dharmacon) for 24 h prior to transfection with MCPIP-GFP or GFP plasmid. A scrambled siRNA was used as a negative control. For knockdown expression of p47^PHOX, specific antisense (AS) (5′-[…]-3′ (SEQ ID NO: 5)) and sense (5′-[…]-3′ (SEQ ID NO: 6)) oligonucleotides were designed and synthesized by phosphorothioate modification by Integrated DNA Technologies. The oligonucleotides were transfected into OC precursor cells using Lipofectamine 2000 for 24 h before MCPIP-GFP plasmid transfection.
(§3) Cells were centrifuged after wash with PBS for twice. Cell pellet was resuspended in 1 ml Trizol reagent and the total RNA was extracted with chloroform and isopropanol, purified on Qiagen Mini-Prep column, and treated with DNase. High Capacity cDNA Reverse Transcription kit (Applied Biosystems) was used for cDNA preparation from 1 μg total RNA. qRT-PCR was done in triplicate in an ABI PRISM 7900HT Sequence Detection System with 5% cDNA product, primers (Supplementary Table S1) at 125 nM, and Fast SYBR Green Master Mix (Applied Biosystems). Relative quantitation of PCR products was done by the 2^−ΔΔCT method, CT=cycles to threshold, and ^ΔΔCT=(target gene CT)−(β-actin reference gene CT). Final data were described as fold changes against control cells.
(§4) Sodium dodecyl sulfate-polyacrylamide gel electrophoresis (SDS-PAGE) and western blotting were performed as described elsewhere. Samples (30 μg of protein) were subjected to 12% SDS-PAGE for most of target protein and 18% SDS-PAGE for LC3-II and LC3, transferred onto PVDF membranes (Millipore), and assayed for MCPIP, p47^PHOX, TRAP, CTSK, GRP78, IRE-1, Beclin-1, LC3-II, and β-actin or Fas (loading control) protein expression by chemiluminescence detection (Pierce ECL kit) according to the manufacturer's instructions. The specific protein bands were quantified by densitometric analysis with GS-690 Image Densitometer (Bio-Rad).

[2] = tested on: GRP78 and IRE-1; test: ER stress markers GRP78 and IRE-1 expression; format: cell-based, human; conditions: for MCPIP-induced expression of GRP78: autophagy inhibition, MCPIP-transfected BMCs; for MCPIP-induced expression of GRP78 and IRE-1: pretreatment prior to MCPIP transfection, immunoblot; for expression of ER stress markers GRP78 and IRE-1: substance alone
Protocol: as §1, §2, §3, §4

[3] = tested on: Beclin-1, LC3, Atg7; test: Autophagy markers (Beclin-1, LC3 lipidation, Atg7) expression; format: cell-based, human; conditions: MCPIP-transfected BMCs
Protocol: as §1, §2, §3, §4

[4] = tested on: MCPIP; test: MCPIP expression (immunoblot, real-time PCR); format: cell-based, human
Protocol: as §1
(§5) OC precursor cells were transfected with 1 μg GFP or MCPIP-GFP eukaryotic expression plasmids for gene-gain-function assay by using Fugene 6. For gene silencing, chemically synthesized siRNA duplex (100 nM) targeting MCPIP, IRE-1, or Beclin-1 was transfected into OC precursor cells using DharmaFECT (Dharmacon) for 24 h prior to transfection with MCPIP-GFP or GFP plasmid. A scrambled siRNA was used as a negative control. […]
(§6) Cells were centrifuged after wash with PBS for twice. […] Relative quantitation of PCR products was done by the 2^−ΔΔCT method, CT=cycles to threshold, and ^ΔΔCT=(target gene CT)−(β-actin reference gene CT). […]
(§7) Sodium dodecyl sulfate-polyacrylamide gel electrophoresis (SDS-PAGE) and western blotting were performed as described elsewhere. […] The specific protein bands were quantified by densitometric analysis with GS-690 Image Densitometer (Bio-Rad).

[5] = tested on: ROS production in BMCs; test: ROS production (DHR123 oxidation); format: cell-based, human
Protocol: as §1
as §2, with “The oligonucleotides were transfected into OC precursor cells using Lipofectamine 2000 for 24 h before MCPIP-GFP plasmid transfection.” left out
Oxidant production in OC precursor cells was assessed by measuring the oxidation of intracellular DHR123 (Molecular Probes) as described previously (Younce et al., 2010). ROS production was expressed as folds compared with control cells expressing GFP alone.

[6] = tested on: p47PHOX; test: p47PHOX expression and membrane translocation (immunoblot); format: cell-based, human
Protocol: as §1
OC precursor cells were transfected with 1 μg GFP or MCPIP-GFP eukaryotic expression plasmids for gene-gain-function assay by using Fugene 6. […]
OC precursor cells were harvested, sonicated on ice in a buffer containing 100 mM KCl, 3 mM NaCl, 3.5 mM MgCl2, 10 mM HEPES, 1 mM EGTA, 10 μg/ml pepstatin, 10 μg/ml leupeptin, and 0.5 mM PMSF; lysates were centrifuged at 600 g for 10 min at 4° C. to remove nuclei and unbroken cells. […] Membranes were washed in the same buffer, quantified (Lemarie), and resuspended in Laemmli sample buffer, before western blot analysis.
as §7

[7] = tested on: human bone marrow mononuclear cells (BMCs); test: TRAP staining, TRAP-positive OC precursor cell formation; format: cell-based; conditions: substance alone, 50 ng/ml MCP-1, human BMCs
Protocol: as §1, §5
Three days after MCP-1 treatment or 4 days after MCPIP transfection, cells were fixed for histological staining for TRAP as described previously (Kim et al., 2006a). […] On each coverslip, totally at least 500 cells were examined and the TRAP-positive cells were counted in 3-5 fields (20× objective), and the percentage of TRAP-positive cells was calculated.

[8] = tested on: αV integrin, β3 integrin, and MMP9; test: Expression of OC functional markers αV integrin, β3 integrin, MMP9; format: cell-based, human; conditions: substance alone
Protocol: as §1, §5, §6, §7

[9] = pretreatment prior to MCPIP transfection

Compound: Cn1cnc(N)c2ncnc1-2 [3′-MA, 3′-methyladenine]
- MCPIP-induced expression of TRAP and CTSK [1]: significantly inhibited
- MCPIP-induced expression of GRP78 [2]: no effect
- MCPIP-induced expression of Beclin-1 [3]: significantly inhibited
- lipidation of LC-3 ([3]; immunoblot): inhibited

Compound: O=c1cc(N2CCOCC2)oc2c(-c3ccccc3)cccc12 [LY294002]
- MCPIP-induced expression of GRP78 [2]: no effect

Compound: C[C@H](CCC(=O)NCCS(=O)(=O)O)[C@H]1CC[C@H]2[C@@H]3[C@@H](O)C[C@@H]4C[C@H](O)CC[C@]4(C)[C@H]3CC[C@]12C [TUDC, tauroursodeoxycholate]
- MCPIP-induced expression of TRAP and CTSK [1]: significantly inhibited
- MCPIP-induced expression of GRP78 and IRE-1 [2]: inhibits
- MCPIP-induced expression of Beclin-1 [3]: inhibited significantly
- expression of MCPIP after MCPIP transfection ([4]; MCPIP-transfected BMCs): did not affect

Compound: COc1cc(C(C)=O)ccc1O [apocynin]
- MCPIP-induced expression of TRAP and CTSK [1]: suppressed
- MCPIP-induced ROS production [5, 9]: suppressed
- MCPIP-induced expression and membrane translocation of p47PHOX [6, 9]: inhibited
- MCPIP-induced expression of GRP78 and IRE-1 [2]: attenuated
- MCPIP-induced expression of Beclin-1 [3]: inhibited significantly

Compound: C/C=C(/C)C(=O)O[C@H]1C(C)=C2[C@H]([C@@H]1OC(=O)CCCCCCC)[C@@](C)(OC(C)=O)C[C@H](OC(=O)CCC)[C@@]1(O)[C@H]2OC(=O)[C@@]1(C)O [thapsigargin]
- expression of TRAP and CTSK [1]: induced
- expression of ER stress markers GRP78 and IRE-1 [2]: induced

Compound: MCP-1: human MCP-1, a CC chemokine, purchased from Invitrogen
- TRAP-positive OC precursor cell formation [7]: induced
- expression of TRAP and CTSK [1]: induced
- ROS generation ([5]; substance alone, DHR123 staining): remarkably increased
- expression of p47PHOX and its translocation from the cytoplasm into the membrane ([6]; substance alone): increased
- expression of ER stress markers GRP78 and IRE-1 [2]: induced
- expression of αV integrin, β3 integrin, and MMP9 [8]: did not affect
- MCPIP protein and mRNA levels ([4]; substance alone, 50 ng/ml MCP-1): induced up-regulation

Compound: tunicamycin
- expression of TRAP and CTSK [1]: induced
- expression of ER stress markers GRP78 and IRE-1 [2]: induced
